# Target: Human VPS34 (Homo sapiens (Human), UniProt Q8NEB9)
# Experiment: Human VPS34 enzyme assay (Adapta TR-FRET)
# Format: biochemical
# Details: compound concentration 1.11 μM
# Human VPS34, sequence (Q8NEB9 whole entry): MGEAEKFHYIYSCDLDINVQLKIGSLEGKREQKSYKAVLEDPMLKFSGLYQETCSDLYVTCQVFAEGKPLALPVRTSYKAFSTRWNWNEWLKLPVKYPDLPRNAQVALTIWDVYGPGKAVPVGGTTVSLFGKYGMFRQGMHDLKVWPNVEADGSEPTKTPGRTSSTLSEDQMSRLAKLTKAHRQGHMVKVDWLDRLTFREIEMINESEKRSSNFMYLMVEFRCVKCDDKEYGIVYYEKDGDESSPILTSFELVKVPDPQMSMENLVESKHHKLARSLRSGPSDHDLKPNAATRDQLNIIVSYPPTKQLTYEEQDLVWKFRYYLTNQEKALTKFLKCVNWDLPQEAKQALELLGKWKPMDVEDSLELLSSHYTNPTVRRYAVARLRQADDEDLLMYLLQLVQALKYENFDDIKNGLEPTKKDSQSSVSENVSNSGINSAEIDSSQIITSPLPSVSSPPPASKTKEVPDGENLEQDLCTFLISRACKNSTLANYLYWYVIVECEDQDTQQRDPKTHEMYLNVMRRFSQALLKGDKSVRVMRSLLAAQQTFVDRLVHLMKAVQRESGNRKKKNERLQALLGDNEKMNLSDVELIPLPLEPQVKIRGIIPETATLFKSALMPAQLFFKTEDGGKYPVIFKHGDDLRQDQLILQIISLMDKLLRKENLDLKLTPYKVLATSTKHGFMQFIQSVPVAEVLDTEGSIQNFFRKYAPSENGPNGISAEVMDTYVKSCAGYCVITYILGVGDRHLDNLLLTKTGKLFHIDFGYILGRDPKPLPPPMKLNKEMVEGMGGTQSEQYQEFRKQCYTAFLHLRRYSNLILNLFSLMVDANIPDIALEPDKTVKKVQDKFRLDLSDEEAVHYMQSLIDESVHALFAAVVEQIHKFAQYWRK
row,Percent Inhibition,Structure (SMILES)
1,93%,"Cc1nc(Nc2cc(-c3cnc(Cl)c(NS(=O)(=O)c4ccc(F)cc4F)c3C)ccn2)ccc1C#N [Compound I-238, N-{6-chloro-2′-[(5-cyano-6-methylpyridin-2-yl)amino]-4-methyl-3,4′-bipyridin-5-yl}-2,4-difluorobenzenesulfonamide]"

# Same assay, conditions: compound concentration 1.11 μM; read-out: Percent Inhibition
row,inhibition at 1.11 µM,Structure (SMILES)
1,93%,"CNc1ncc(-c2ccnc(Nc3ccncn3)c2)cc1C(=O)N(C)C12CC(C1)C2 [Compound I-222, N-(bicyclo[1.1.1]pent-1-yl)-N-methyl-6-(methylamino)-2′-(pyrimidin-4-ylamino)-3,4′-bipyridine-5-carboxamide]"
2,95%,"Cc1nccc(Nc2cc(-c3cnc(C)c(C(=S)N4CCC4)c3)ccn2)n1 [Compound I-223, Azetidin-1-yl{6-methyl-2′-[(2-methylpyrimidin-4-yl)amino]-3,4′-bipyridin-5-yl}methanethione]"
3,99%,"COc1ncc(-c2ccnc(Nc3ccnc(C)n3)c2)cc1S(=O)(=O)NC1CCC1 [Compound I-224, N-cyclobutyl-6-methoxy-2′-[(2-methylpyrimidin-4-yl)amino]-3,4′-bipyridine-5-sulfonamide]"
4,> 99%,"COc1nccc(Nc2cc(-c3cnc(Cl)c(NS(=O)(=O)c4ccc(F)cc4F)c3C)ccn2)n1 [Compound I-225, N-{6-chloro-2′-[(2-methoxypyrimidin-4-yl)amino]-4-methyl-3,4′-bipyridin-5-yl}-2,4-difluorobenzene sulfonamide]"
5,94%,"Cc1nccc(Nc2cc(-c3cnc(Cl)c(N)c3C)ccn2)n1 [Compound I-226, 6-chloro-4-methyl-N-2′-(2-methylpyrimidin-4-yl)-3,4′-bipyridine-2′,5-diamine]"
6,> 99%,"CC(=O)Nc1cc(-c2cnc(Cl)c(NS(=O)(=O)c3cc(F)ccc3F)c2C)ccn1 [Compound I-227, N-(6-chloro-5-{[(2,5-difluorophenyl)sulfonyl]amino}-4-methyl-3,4′-bipyridin-2′-yl)acetamide]"
7,> 99%,"Cc1ncc(-c2ccnc(Nc3ccc(C#N)cn3)c2)cc1NS(=O)(=O)c1ccc(F)cc1F [Compound I-228, N-{2′-[(5-cyanopyridin-2-yl)amino]-6-methyl-3,4′-bipyridin-5-yl}-2,4-difluorobenzene sulfonamide]"
8,> 99%,"Cc1nc(Nc2cc(-c3cnc(C)c(NS(=O)(=O)N(C)C)c3)ccn2)ccc1C#N [Compound I-229, N-{2′-[(5-cyano-6-methylpyridin-2-yl)amino]-6-methyl-3,4′-bipyridin-5-yl}-N,N-dimethylsulfuric diamide]"
9,97%,"COc1nccc(Nc2cc(-c3cnc(N)c(C(=O)N(C)C45CC(C4)C5)c3)ccn2)n1 [Compound I-230, 6-amino-N-(bicyclo[1.1.1]pent-1-yl)-2′-((2-methoxypyrimidin-4-yl)amino)-N-methyl-[3,4′-bipyridine]-5-carboxamide]"
10,26%,"Nc1cncc(-c2ccnc(N)c2)c1 [Compound I-231, 3,4′-bipyridine-2′,5-diamine]"
11,81%,"Cc1nccc(Nc2cc(-c3cnc(Cl)c(C(=O)N4CCC4)c3)ccn2)n1 [Compound I-232, azetidin-1-yl{6-chloro-2′-[(2-methylpyrimidin-4-yl)amino]-3,4′-bipyridin-5-yl}methanone]"
12,96%,"Cc1ncc(-c2ccnc(Nc3nc4ccccc4o3)c2)cc1NS(=O)(=O)c1ccc(F)cc1F [Compound I-233, N-[2'-(1,3-benzoxazol-2-ylamino)-6-methyl-3,4′-bipyridin-5-yl]-2,4-difluorobenzene sulfonamide]"
13,90%,"Cc1nccc(Nc2cc(-c3cncc(C(=O)N(C)C45CC(C4)C5)c3)ccn2)n1 [Compound I-234, N-(bicyclo[1.1.1]pent-1-yl)-N-methyl-2′-[(2-methylpyrimidin-4-yl)amino]-3,4′-bipyridine-5-carboxamide]"
14,92%,"Cc1ccc2ccc(Nc3cc(-c4cnc(C)c(NS(=O)(=O)c5ccc(F)cc5F)c4)ccn3)nc2n1 [Compound I-235, 2,4-difluoro-N-{6-methyl-2′-[(7-methyl-1,8-naphthyridin-2-yl)amino]-3,4′-bipyridin-5-yl}benzenesulfonamide]"
15,98%,"CC(=O)Nc1cc(-c2cnc(Cl)c(NS(=O)(=O)N(C)C)c2C)ccn1 [Compound I-236, N-{6-chloro-5-[(dimethylsulfamoyl)amino]-4-methyl-3,4′-bipyridin-2′-yl}acetamide]"
16,91%,"Cc1ncc(-c2ccnc(Nc3ccnc(C(F)(F)F)n3)c2)cc1NS(=O)(=O)c1ccc(F)cc1F [Compound I-237, 2,4-difluoro-N-(6-methyl-2′-{[2-(trifluoromethyl)pyrimidin-4-yl]amino}-3,4′-bipyridin-5-yl)benzenesulfonamide]"
17,> 99%,Cc1ncc(-c2ccnc(Nc3ccncn3)c2)cc1NS(=O)(=O)c1ccc(F)cc1F [Compound I-239]
18,> 99%,"CC(=O)Nc1cc(-c2cnc(Cl)c(NS(=O)(=O)c3ccccc3Cl)c2C)ccn1 [Compound I-240, N-(6-chloro-5-{[(2-chlorophenyl)sulfonyl]amino}-4-methyl-3,4′-bipyridin-2′-yl)acetamide]"

# The next lines start with the molecule.
row,Structure (SMILES),inhibition at 1.11 µM
1,"CCc1ncc(-c2ccnc(NC(C)=O)c2)cc1NS(=O)(=O)c1ccc(F)cc1F [Compound I-201, N-(5-{[(2,4-difluorophenyl)sulfonyl]amino}-6-ethyl-3,4′-bipyridin-2′-yl)acetamide]",> 99%
2,"CC(=O)Nc1cc(-c2cncc(N(CC3CC3)S(C)(=O)=O)c2)ccn1 [Compound I-202, N-{5-[(cyclopropylmethyl)(methylsulfonyl)amino]-3,4′-bipyridin-2′-yl}acetamide]",> 99%
3,"CC(=O)Nc1cc(-c2cnc(C)c(NS(=O)(=O)c3ccsc3)c2)ccn1 [Compound I-203, N-{6-methyl-5-[(3-thienylsulfonyl)amino]-3,4′-bipyridin-2′-yl}acetamide]",> 99%
4,"CC(=O)Nc1cc(-c2cnc(N)c(S(=O)(=O)Nc3cccnc3)c2)ccn1 [Compound I-204, N-[6-amino-5-(pyridin-3-ylsulfamoyl)-3,4′-bipyridin-2′-yl]acetamide]",> 99%
5,"CC(=O)Nc1cc(-c2cnc(N)c(S(=O)(=O)Cc3cccnc3)c2)ccn1 [Compound I-205, N-{6-amino-5-[(pyridin-3-ylmethyl)sulfonyl]-3,4′-bipyridin-2′-yl}acetamide]",> 99%
6,"CC(=O)Nc1cc(-c2cnc(C)c(NS(=O)(=O)c3ccc(F)cc3Cl)c2)ccn1 [Compound I-206, N-(5-{[(2-chloro-4-fluorophenyl)sulfonyl]amino}-6-methyl-3,4′-bipyridin-2′-yl)acetamide]",> 99%
7,"CC(=O)Nc1cc(-c2cnc(N)c(S(=O)(=O)Nc3ccc(Cl)cc3)c2)ccn1 [Compound I-207, N-{6-amino-5-[(4-chlorophenyl)sulfamoyl]-3,4′-bipyridin-2′-yl}acetamide]",> 99%
8,"CC(=O)Nc1cc(-c2cnc3[nH]ncc3c2)c(C)cn1 [Compound I-209, N-[5-methyl-4-(1H-pyrazolo[3,4-b]pyridin-5-yl)pyridin-2-yl]acetamide]",49%
9,"CC(=O)Nc1cc(-c2cnc(N)c(C(=O)NC3CCOCC3)c2)ccn1 [Compound I-210, 2′-acetamido-6-amino-N-(tetrahydro-2H-pyran-4-yl)-3,4′-bipyridine-5-carboxamide]",> 99%
10,"CC(=O)Nc1cc(-c2cnc(C)c(NS(=O)(=O)c3ccccc3C)c2)ccn1 [Compound I-211, N-(6-methyl-5-{[(2-methylphenyl)sulfonyl]amino}-3,4′-bipyridin-2′-yl)acetamide]",> 99%
11,"CC(=O)Nc1cc(-c2cnc(C)c(N(C)S(=O)(=O)C3CC3)c2)ccn1 [Compound I-212, N-{5-[(cyclopropylsulfonyl)(methyl)amino]-6-methyl-3,4′-bipyridin-2′-yl}acetamide]",95%
12,"CC(=O)Nc1cc(-c2cnc(Cl)c(C(=O)N(C)C)c2)ccn1 [Compound I-213, 2′-acetamido-6-chloro-N,N-dimethyl-3,4′-bipyridine-5-carboxamide]",> 99%
13,"CC(=O)Nc1cc(-c2cnc(C)c(NS(=O)(=O)N3CCCCC3)c2)ccn1 [Compound I-214, N-{6-methyl-5-[(piperidin-1-ylsulfonyl)amino]-3,4′-bipyridin-2′-yl}acetamide]",> 99%
14,"Cc1nccc(Nc2cc(-c3cnc(Cl)c(S(=O)(=O)NC4CCC4)c3)ccn2)n1 [Compound I-215, 6-chloro-N-cyclobutyl-2′-((2-methylpyrimidin-4-yl)amino)-[3,4′-bipyridine]-5-sulfonamide]",99%
15,"N=C(N)NC(=O)c1cc(-c2ccnc(Nc3ccncn3)c2)cnc1N [Compound I-216, 6-Amino-N-carbamimidoyl-2′-(pyrimidin-4-ylamino)-3,4′-bipyridine-5-carboxamide]",97%
16,"Cc1ncc(-c2ccnc(Nc3ccncn3)c2)cc1NS(=O)(=O)N(C)C [Compound I-217, N,N-dimethyl-Y-[6-methyl-2′-(pyrimidin-4-ylamino)-3,4′-bipyridin-5-yl]sulfuric diamide]",> 99%
17,"CC(=O)Nc1cc(-c2cnc(C)c(NS(=O)(=O)c3ccc(F)cc3F)c2)cc[n+]1[O-] [Compound I-219, N-[4-(5-{[(2,4-difluorophenyl)sulfonyl]amino}-6-methylpyridin-3-yl)-1-oxidopyridin-2-yl]acetamide]",92%
18,"COc1ncc(-c2ccnc(NC(C)=O)c2)cc1NS(=O)(=O)N(C)C [Compound I-220, N-{5-[(dimethylsulfamoyl)amino]-6-methoxy-3,4′-bipyridin-2′-yl}acetamide]",99%
19,"Cc1nccc(Nc2cc(-c3cnc(C)c(C(=O)N4CC(F)(F)C4)c3)ccn2)n1 [Compound I-221, (3,3-difluoroazetidin-1-yl){6-methyl-2′-[(2-methylpyrimidin-4-yl)amino]-3,4′-bipyridin-5-yl}methanone]",97%

# Same assay, conditions: read-out: Percent Inhibition
row,Structure (SMILES),inhibition at 1.11 µM
1,CC(=O)Nc1cc(-c2cnc(N)c(S(=O)(=O)CC3CC3)c2)ccn1 [Compound I-208],> 99%

# Reference: patent US9802960B2 (MILLENNIUM PHARMACEUTICALS, INC., priority 2014, dated 2017)
